# Experimental data as given in PMC5863483, “Low HLA binding of diabetes-associated CD8+ T-cell epitopes is increased by post translational modifications” (BMC Immunology, 2018).
# pIC50: −log10 of the molar value. Where a SMILES comes first, the peptide text is derived from it. [ ]: non-standard residue; d: D form. Cit = NC(=O)NCCC[C@H](N)C(=O)O
# Molecular target: HLA-A*02:01 (Homo sapiens, UniProt P04439, D140Y/D185E/D98H/E176V/E277Q/G131W/G231S/I119V/I121R/I166T/I218V/L300P/L318F/N151K/N90K/P208A/P217A/Q86G/Q94H/R138H/R169H/T345S)
# Test: HLA-peptide competition binding assay, A*02:01
# Conditions: not given
row,SMILES,pIC50
1,CSCC[C@H](NC(=O)[C@H](Cc1c[nH]c2ccccc12)NC(=O)[C@H](CC(C)C)NC(=O)[C@H](C)NC(=O)[C@@H](N)CCSC)C(=O)N[C@@H](CCCNC(N)=O)C(=O)N[C@@H](CC(C)C)C(=O)N[C@@H](CC(C)C)C(=O)N1CCC[C@H]1C(=O)N[C@@H](CC(C)C)C(=O)O (H-MALWM[Cit]LLPL-OH),6.58
2,CSCC[C@H](NC(=O)[C@@H](N)Cc1c[nH]c2ccccc12)C(=O)N[C@@H](CCCNC(N)=O)C(=O)N[C@@H](CC(C)C)C(=O)N[C@@H](CC(C)C)C(=O)N1CCC[C@H]1C(=O)N[C@@H](CC(C)C)C(=O)N[C@@H](CC(C)C)C(=O)N[C@@H](C)C(=O)O (H-WM[Cit]LLPLLA-OH),6.00

# Same assay, conditions: post-translationally modified insulin peptide; competition binding assay; a dash indicates IC50 >40,000 nM; read-out: A*02:01 binding (IC50 nM) Modified
row,IC50,SMILES
1,> 40000 nM,CC(C)C[C@H](NC(=O)[C@H](CC(=O)O)NC(=O)[C@H](CCC(=O)O)NC(=O)[C@H](C)NC(=O)[C@H](CCC(=O)O)NC(=O)[C@H](CCCNC(N)=O)NC(=O)[C@H](CCCNC(N)=O)NC(=O)[C@@H](NC(=O)[C@@H](N)CCCCN)[C@@H](C)O)C(=O)O (H-KT[Cit][Cit]EAEDL-OH; N-terminus and C-terminus assumed)
2,> 40000 nM,CC(C)C[C@H](NC(=O)[C@H](CO)NC(=O)CNC(=O)[C@H](CCC(=O)O)NC(=O)[C@@H](N)CC(C)C)C(=O)N[C@@H](CCC(N)=O)C(=O)N[C@@H](CCCCN)C(=O)N[C@@H](CCCNC(N)=O)C(=O)NCC(=O)O (H-LEGSLQK[Cit]G-OH; N-terminus and C-terminus assumed)
3,> 40000 nM,CC[C@H](C)[C@H](NC(=O)CNC(=O)[C@H](CCCNC(N)=O)NC(=O)[C@H](CCCCN)NC(=O)[C@H](CCC(N)=O)NC(=O)[C@H](CC(C)C)NC(=O)[C@H](CO)NC(=O)CNC(=O)[C@H](CCC(=O)O)NC(=O)[C@@H](N)CC(C)C)C(=O)O (H-LEGSLQK[Cit]GI-OH; N-terminus and C-terminus assumed)
4,> 40000 nM,CC[C@H](C)[C@H](NC(=O)CNC(=O)[C@H](CCCNC(N)=O)NC(=O)[C@H](CCCCN)NC(=O)[C@H](CCC(N)=O)NC(=O)[C@@H](N)CC(C)C)C(=O)N[C@H](C(=O)N[C@@H](CCC(=O)O)C(=O)N[C@@H](CCC(N)=O)C(=O)O)C(C)C (H-LQK[Cit]GIVEQ-OH; N-terminus and C-terminus assumed)
5,> 40000 nM,CC[C@H](C)[C@H](NC(=O)CNC(=O)[C@H](CCCNC(N)=O)NC(=O)[C@H](CCCCN)NC(=O)[C@H](CCC(N)=O)NC(=O)[C@@H](N)CC(C)C)C(=O)N[C@H](C(=O)N[C@@H](CCC(=O)O)C(=O)N[C@@H](CCC(N)=O)C(=O)N[C@@H](CS)C(=O)O)C(C)C (H-LQK[Cit]GIVEQC-OH; N-terminus and C-terminus assumed)
6,> 40000 nM,CC(C)C[C@H](N)C(=O)N[C@H](C(=O)N[C@@H](CS)C(=O)NCC(=O)N[C@@H](CCC(=O)O)C(=O)N[C@@H](CCCNC(N)=O)C(=O)NCC(=O)N[C@@H](Cc1ccccc1)C(=O)N[C@@H](Cc1ccccc1)C(=O)O)C(C)C (H-LVCGE[Cit]GFF-OH; N-terminus and C-terminus assumed)
7,> 40000 nM,CC(C)C[C@H](N)C(=O)N[C@H](C(=O)N[C@@H](CS)C(=O)NCC(=O)N[C@@H](CCC(=O)O)C(=O)N[C@@H](CCCNC(N)=O)C(=O)NCC(=O)N[C@@H](Cc1ccccc1)C(=O)N[C@@H](Cc1ccccc1)C(=O)N[C@@H](Cc1ccc(O)cc1)C(=O)O)C(C)C (H-LVCGE[Cit]GFFY-OH; N-terminus and C-terminus assumed)
8,> 40000 nM,CC(C)C[C@H](NC(=O)[C@H](CC(=O)O)NC(=O)[C@H](CCC(=O)O)NC(=O)[C@H](C)NC(=O)[C@H](CCC(=O)O)NC(=O)[C@H](CCCNC(N)=O)NC(=O)[C@H](CCCNC(N)=O)NC(=O)[C@@H](NC(=O)[C@H](CCCCN)NC(=O)[C@@H]1CCCN1)[C@@H](C)O)C(=O)O (H-PKT[Cit][Cit]EAEDL-OH; N-terminus and C-terminus assumed)
9,> 40000 nM,CC[C@H](C)[C@H](NC(=O)CNC(=O)[C@H](CCCNC(N)=O)NC(=O)[C@H](CCCCN)NC(=O)[C@@H](N)CCC(N)=O)C(=O)N[C@H](C(=O)N[C@@H](CCC(=O)O)C(=O)N[C@@H](CCC(N)=O)C(=O)N[C@@H](CS)C(=O)O)C(C)C (H-QK[Cit]GIVEQC-OH; N-terminus and C-terminus assumed)
10,> 40000 nM,CC[C@H](C)[C@H](NC(=O)CNC(=O)[C@H](CCCNC(N)=O)NC(=O)[C@H](CCCCN)NC(=O)[C@H](CCC(N)=O)NC(=O)[C@H](CC(C)C)NC(=O)[C@@H](N)CO)C(=O)N[C@H](C(=O)N[C@@H](CCC(=O)O)C(=O)N[C@@H](CCC(N)=O)C(=O)O)C(C)C (H-SLQK[Cit]GIVEQ-OH; N-terminus and C-terminus assumed)
11,> 40000 nM,C[C@H](NC(=O)[C@H](CCC(=O)O)NC(=O)[C@H](CCCNC(N)=O)NC(=O)[C@H](CCCNC(N)=O)NC(=O)[C@@H](NC(=O)[C@H](CCCCN)NC(=O)[C@@H]1CCCN1C(=O)[C@@H](N)[C@@H](C)O)[C@@H](C)O)C(=O)N[C@@H](CCC(=O)O)C(=O)O (H-TPKT[Cit][Cit]EAE-OH; N-terminus and C-terminus assumed)
12,> 40000 nM,CC(C)C[C@H](NC(=O)[C@H](CC(=O)O)NC(=O)[C@H](CCC(=O)O)NC(=O)[C@H](C)NC(=O)[C@H](CCC(=O)O)NC(=O)[C@H](CCCNC(N)=O)NC(=O)[C@H](CCCNC(N)=O)NC(=O)[C@@H](N)[C@@H](C)O)C(=O)N[C@@H](CCC(N)=O)C(=O)O (H-T[Cit][Cit]EAEDLQ-OH; N-terminus and C-terminus assumed)
13,> 40000 nM,CC(C)[C@H](N)C(=O)N[C@@H](CS)C(=O)NCC(=O)N[C@@H](CCC(=O)O)C(=O)N[C@@H](CCCNC(N)=O)C(=O)NCC(=O)N[C@@H](Cc1ccccc1)C(=O)N[C@@H](Cc1ccccc1)C(=O)N[C@@H](Cc1ccc(O)cc1)C(=O)N[C@H](C(=O)O)[C@@H](C)O (H-VCGE[Cit]GFFYT-OH; N-terminus and C-terminus assumed)
14,> 40000 nM,C[C@H](NC(=O)[C@H](CCC(=O)O)NC(=O)[C@H](CCCNC(N)=O)NC(=O)[C@H](CCCNC(N)=O)NC(=O)[C@@H](NC(=O)[C@H](CCCCN)NC(=O)[C@@H]1CCCN1C(=O)[C@@H](NC(=O)[C@@H](N)Cc1ccc(O)cc1)[C@@H](C)O)[C@@H](C)O)C(=O)N[C@@H](CCC(=O)O)C(=O)O (H-YTPKT[Cit][Cit]EAE-OH; N-terminus and C-terminus assumed)

# Same assay, conditions: post-translationally modified insulin-derived peptide; radiolabeled ligand competition, purified MHC, two-day incubation, three or more independent experiments; read-out: A*02:01 binding, Modified
row,pIC50,SMILES
1,4.79,CC(C)C[C@H](NC(=O)[C@H](C)NC(=O)[C@@H](N)CC(C)C)C(=O)N[C@@H](CCC(=O)O)C(=O)NCC(=O)N[C@@H](CO)C(=O)N[C@@H](CC(C)C)C(=O)N[C@@H](CCC(N)=O)C(=O)N[C@@H](CCCCN)C(=O)N[C@@H](CCCNC(N)=O)C(=O)O (H-LALEGSLQK[Cit]-OH)
2,7.21,CSCC[C@H](NC(=O)[C@H](Cc1c[nH]c2ccccc12)NC(=O)[C@@H](N)CC(C)C)C(=O)N[C@@H](CCCNC(N)=O)C(=O)N[C@@H](CC(C)C)C(=O)N[C@@H](CC(C)C)C(=O)N1CCC[C@H]1C(=O)N[C@@H](CC(C)C)C(=O)N[C@@H](CC(C)C)C(=O)N[C@@H](C)C(=O)O (H-LWM[Cit]LLPLLA-OH)
3,5.67,CSCC[C@H](NC(=O)[C@H](Cc1c[nH]c2ccccc12)NC(=O)[C@H](CC(C)C)NC(=O)[C@H](C)NC(=O)[C@@H](N)CCSC)C(=O)N[C@@H](CCCNC(N)=O)C(=O)N[C@@H](CC(C)C)C(=O)N[C@@H](CC(C)C)C(=O)N1CCC[C@H]1C(=O)O (H-MALWM[Cit]LLP-OH)

# Same assay, conditions: read-out: A*02:01 binding (IC50 nM) Modified
row,IC50,SMILES
1,22300 nM,CC(C)C[C@H](NC(=O)[C@H](CC(=O)O)NC(=O)[C@H](CCC(=O)O)NC(=O)[C@H](C)NC(=O)[C@H](CCC(=O)O)NC(=O)[C@H](CCCNC(N)=O)NC(=O)[C@H](CCCNC(N)=O)NC(=O)[C@@H](NC(=O)[C@@H](N)CCCCN)[C@@H](C)O)C(=O)N[C@@H](CCC(N)=O)C(=O)O (H-KT[Cit][Cit]EAEDLQ-OH)
2,148 nM,CSCC[C@H](NC(=O)[C@H](Cc1c[nH]c2ccccc12)NC(=O)[C@@H](N)CC(C)C)C(=O)N[C@@H](CCCNC(N)=O)C(=O)N[C@@H](CC(C)C)C(=O)N[C@@H](CC(C)C)C(=O)N1CCC[C@H]1C(=O)N[C@@H](CC(C)C)C(=O)N[C@@H](CC(C)C)C(=O)O (H-LWM[Cit]LLPLL-OH)
3,98 nM,CSCC[C@H](N)C(=O)N[C@@H](CCCNC(N)=O)C(=O)N[C@@H](CC(C)C)C(=O)N[C@@H](CC(C)C)C(=O)N1CCC[C@H]1C(=O)N[C@@H](CC(C)C)C(=O)N[C@@H](CC(C)C)C(=O)N[C@@H](C)C(=O)N[C@@H](CC(C)C)C(=O)N[C@@H](CC(C)C)C(=O)O (H-M[Cit]LLPLLALL-OH)
4,30200 nM,CC(C)C[C@H](NC(=O)[C@H](CC(=O)O)NC(=O)[C@H](CCC(=O)O)NC(=O)[C@H](C)NC(=O)[C@H](CCC(=O)O)NC(=O)[C@H](CCCNC(N)=O)NC(=O)[C@H](CCCNC(N)=O)NC(=O)[C@@H](N)[C@@H](C)O)C(=O)N[C@@H](CCC(N)=O)C(=O)N[C@H](C(=O)O)C(C)C (H-T[Cit][Cit]EAEDLQV-OH)
5,33500 nM,CC(C)[C@H](N)C(=O)N[C@@H](CS)C(=O)NCC(=O)N[C@@H](CCC(=O)O)C(=O)N[C@@H](CCCNC(N)=O)C(=O)NCC(=O)N[C@@H](Cc1ccccc1)C(=O)N[C@@H](Cc1ccccc1)C(=O)N[C@@H](Cc1ccc(O)cc1)C(=O)O (H-VCGE[Cit]GFFY-OH)
6,11400 nM,CC(C)C[C@H](NC(=O)[C@@H](N)Cc1ccc(O)cc1)C(=O)N[C@H](C(=O)N[C@@H](CS)C(=O)NCC(=O)N[C@@H](CCC(=O)O)C(=O)N[C@@H](CCCNC(N)=O)C(=O)NCC(=O)N[C@@H](Cc1ccccc1)C(=O)O)C(C)C (H-YLVCGE[Cit]GF-OH)
7,2620 nM,CC(C)C[C@H](NC(=O)[C@@H](N)Cc1ccc(O)cc1)C(=O)N[C@H](C(=O)N[C@@H](CS)C(=O)NCC(=O)N[C@@H](CCC(=O)O)C(=O)N[C@@H](CCCNC(N)=O)C(=O)NCC(=O)N[C@@H](Cc1ccccc1)C(=O)N[C@@H](Cc1ccccc1)C(=O)O)C(C)C (H-YLVCGE[Cit]GFF-OH)
8,34700 nM,C[C@H](NC(=O)[C@H](CCC(=O)O)NC(=O)[C@H](CCCNC(N)=O)NC(=O)[C@H](CCCNC(N)=O)NC(=O)[C@@H](NC(=O)[C@H](CCCCN)NC(=O)[C@@H]1CCCN1C(=O)[C@@H](NC(=O)[C@@H](N)Cc1ccc(O)cc1)[C@@H](C)O)[C@@H](C)O)C(=O)O (H-YTPKT[Cit][Cit]EA-OH)
